Laboratory results published in the supplement of paper PMC10307832.

What was measured:
Test in all cases: relative viability (nuclei count vs DMSO), 5 days (fraction); higher = more cells survive
Seliciclib = compound: CC[C@H](CO)Nc1nc(NCc2ccccc2)c2ncn(C(C)C)c2n1 [Seliciclib]
Method in brief: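 Lung cancer cell lines were seeded into 1536-well plates, kept overnight at 37 °C and pinned with five library-drug doses (not always all listed) spaced by √10. After 5 days, nuclei were Hoechst-stained, imaged at 4× and counted with MetaXpress. Viability is treated-well nuclei over vehicle-well nuclei, taken as a median across plates. Plates needed control CV below 25% and at least one doubling.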

Seliciclib + Tozasertib = compound: CC[C@H](CO)Nc1nc(NCc2ccccc2)c2ncn(C(C)C)c2n1 [Seliciclib] + Cc1cc(Nc2cc(N3CCN(C)CC3)nc(Sc3ccc(NC(=O)C4CC4)cc3)n2)n[nH]1 [Tozasertib] (partner 0.1 µM)
Method in brief: (§1)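 For relative viability, nuclei counts in treated wells were divided by those in vehicle wells. Lung cancer cell lines had been pin-tool dosed in 1536-well plates the day after seeding and cultured for 5 days, then fixed and stained in one step (final 0.05% Triton X-100, 1% formaldehyde, 1 ug/ml Hoechst) and imaged at 4×. Doses were one drug alone or a fixed anchor-drug dose plus five library-drug doses (not always all listed) in √10 steps, and values are duplicate-plate medians.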

Seliciclib + Trametinib = compound: CC[C@H](CO)Nc1nc(NCc2ccccc2)c2ncn(C(C)C)c2n1 [Seliciclib] + CC(=O)Nc1cccc(-n2c(=O)n(C3CC3)c(=O)c3c(Nc4ccc(I)cc4F)n(C)c(=O)c(C)c32)c1 [Trametinib] (partner 0.02 µM)
Method in brief: as §1

Seliciclib + AZD7762 = compound: CC[C@H](CO)Nc1nc(NCc2ccccc2)c2ncn(C(C)C)c2n1 [Seliciclib] + NC(=O)Nc1cc(-c2cccc(F)c2)sc1C(=O)N[C@H]1CCCNC1 [AZD7762] (partner 0.2 µM)
Method in brief: as §1

Row | Cell Line | relative viability (Seliciclib; 0.08 µM) | relative viability (Seliciclib; 0.253 µM) | relative viability (Seliciclib; 0.8 µM) | relative viability (Seliciclib; 2.53 µM) | relative viability (Seliciclib; 8 µM) | relative viability (Seliciclib + Tozasertib; first compound 0.08 µM) | relative viability (Seliciclib + Tozasertib; first compound 0.253 µM) | relative viability (Seliciclib + Tozasertib; first compound 0.8 µM) | relative viability (Seliciclib + Tozasertib; first compound 2.53 µM) | relative viability (Seliciclib + Tozasertib; first compound 8 µM) | relative viability (Seliciclib + Trametinib; first compound 0.08 µM) | relative viability (Seliciclib + Trametinib; first compound 0.253 µM) | relative viability (Seliciclib + Trametinib; first compound 0.8 µM) | relative viability (Seliciclib + Trametinib; first compound 2.53 µM) | relative viability (Seliciclib + Trametinib; first compound 8 µM) | relative viability (Seliciclib + AZD7762; first compound 0.08 µM) | relative viability (Seliciclib + AZD7762; first compound 0.253 µM) | relative viability (Seliciclib + AZD7762; first compound 0.8 µM) | relative viability (Seliciclib + AZD7762; first compound 2.53 µM) | relative viability (Seliciclib + AZD7762; first compound 8 µM)
1 | H3255 | 1.07 | 0.94 | 1.08 | 0.965 | 0.888 | 0.588 | 0.645 | 0.585 | 0.507 | 0.604 | 0.629 | 0.52 | 0.652 | 0.631 | 0.494 | 0.811 | 0.848 | 0.951 | 0.839 | 0.823
2 | EPLC-272H | 0.982 | 0.876 | 0.863 | 0.863 | 0.844 | 0.247 | 0.231 | 0.297 | 0.181 | 0.153 | 0.298 | 0.269 | 0.309 | 0.258 | 0.244 | 0.203 | 0.17 | 0.208 | 0.329 | 0.347
3 | PC-3 [JPC-3] | 1.03 | 1.08 | 0.994 | 0.928 | 0.913 | 0.883 | 0.837 | 0.871 | 0.88 | 0.708 | 0.754 | 0.861 | 0.721 | 0.577 | 0.528 | 0.994 | 1 | 0.77 | 0.617 | 0.718
4 | EKVX | 0.946 | 1.03 | 0.862 | 0.923 | 0.844 |  | 0.453 | 0.372 | 0.363 | 0.322 | 0.373 | 0.252 | 0.286 | 0.31 | 0.328 | 0.767 | 0.767 | 0.791 | 0.642 | 0.711
5 | ChaGo-K-1 | 1.05 | 0.995 | 0.923 | 0.935 | 0.912 | 0.241 | 0.225 | 0.213 | 0.222 | 0.238 | 0.838 | 0.87 | 0.894 | 0.873 | 0.745 | 0.875 | 0.511 | 0.895 | 0.918 | 0.892
6 | NCI-H23 | 1.01 | 0.81 | 0.991 | 0.449 | 0.565 | 0.424 | 0.368 | 0.379 | 0.426 | 0.322 | 0.428 | 0.343 | 0.406 | 0.297 | 0.308 | 0.25 | 0.292 | 0.424 | 0.258 | 0.468
7 | EMC-BAC-2 | 0.978 | 0.894 | 1.03 | 0.654 | 0.811 | 0.257 | 0.242 | 0.318 | 0.274 | 0.257 | 0.883 | 0.934 | 0.809 | 0.721 | 0.778 | 1.2 | 1.21 | 1.25 | 0.794 | 0.946
8 | LOU-NH91 | 0.789 | 0.916 | 0.919 | 0.85 | 0.723 | 0.638 | 0.686 | 0.583 | 0.62 | 0.515 |  | 0.702 | 0.786 | 0.745 | 0.752 |  | 0.715 | 0.794 | 0.702 | 0.569
9 | LU99A | 0.962 | 0.836 | 0.953 | 0.69 | 0.775 | 0.282 | 0.29 | 0.32 | 0.209 | 0.205 | 0.586 | 0.484 | 0.5 | 0.485 | 0.393 | 0.338 | 0.321 | 0.491 | 0.317 | 0.49
10 | NCI-H1395 | 0.978 | 0.725 | 0.857 | 0.789 | 0.94 | 0.738 | 0.718 | 0.719 | 0.718 | 0.69 | 1.04 | 0.843 | 0.968 |  | 1.04 | 0.41 | 0.436 | 0.419 |  | 0.533
11 | NCI-H460 | 0.952 | 1.13 | 0.996 | 1.04 | 0.889 | 0.525 | 0.561 | 0.502 | 0.465 | 0.363 | 0.176 | 0.137 | 0.132 | 0.115 | 0.102 | 0.567 | 0.752 | 0.71 | 1.06 | 0.773
12 | 201T | 0.982 | 1.06 | 0.959 | 0.845 | 0.883 | 0.948 | 0.959 | 0.893 | 0.964 | 0.745 | 0.701 | 0.716 | 0.694 | 0.727 | 0.632 | 0.578 | 0.534 | 0.69 | 0.622 | 0.734
13 | NCI-H1648 | 0.922 | 1.11 | 1.18 | 0.721 | 0.704 | 0.531 | 0.825 | 0.413 | 0.362 | 0.364 | 0.5 | 0.501 | 0.478 | 0.406 | 0.394 | 0.775 | 1.06 | 0.758 | 0.826 | 0.71
14 | NCI-H2405 | 0.919 | 1.02 | 0.976 | 0.804 | 0.872 | 0.753 | 0.797 | 0.762 | 0.602 | 0.601 | 0.631 | 0.44 | 0.664 | 0.509 | 0.591 | 0.8 | 0.757 | 0.831 | 0.584 | 0.648
15 | NCI-H1703 | 0.947 | 0.905 | 1.04 | 0.951 | 0.965 |  |  |  |  |  |  |  |  |  |  | 0.132 | 0.147 | 0.135 | 0.126 | 0.111
16 | NCI-H1755 | 1.01 | 0.995 | 0.951 | 0.99 | 0.989 | 0.617 | 0.605 | 0.62 | 0.502 | 0.534 | 0.804 | 0.658 | 0.757 | 0.776 | 0.71 | 0.447 | 0.408 | 0.481 | 0.488 | 0.617
